# According to patent US20090202618A1, “Dna vaccines encoding hsp60 peptide fragments for treating autoimmune diseases” (Yeda Research & Development Co. Ltd, priority 2003, published 2009):
# Test system: LNC
# Assay: LNC proliferative response to overlapping peptides of HSP60
# Type: cell-based, Lewis rats
# Conditions: day 26 after AA induction, SI±SEM, SI<2 considered not significant
# Method: T-cell proliferation assays were performed at day 26 after the induction of AA, when the disease is at its peak, as previously described (Quintana et al., 2002). Briefly, popliteal and inguinal lymph node cells (LNC), were cultured in quadruplicates in 200 μl round bottom microtiter wells (Costar Corp., Cambridge, USA) at 2×10^5 cells per well with or without antigen. The T-cell mitogen Concanavalin A (Con A) was used as a positive control for T-cell proliferation. Cultures were incubated for 96 hr at 37° C. in a humidified atmosphere of 5% CO2. T-cell responses were detected by the incorporation of [methyl-3H]-thymidine (Amersham, Buckinghamshire, UK; 1 μCi/well), which was added to the wells for the last 18 hr. The stimulation index (SI) was computed as the ratio of the mean c.p.m. of antigen- or mitogen-containing wells to control wells cultured with medium alone. The results of T-cell proliferation experiments are shown as SI±SEM, T-cell responses with SI<2 were considered not significant.
# It was previously reported that the suppression of AA by pHSP60 DNA vaccination was associated with T-cell reactivity to a single HSP60 peptide epitope, Hu3 (Quintana et al., 2003). […]
sequence,measurement,setting,value
KFGADARALMLQGVDLLADA (human hsp60 epitope) [Hu3],Stimulation Index (SI),LNC from pHSP70-vaccinated rats,did not respond
same,Stimulation Index (SI),LNC from pcDNA3-vaccinated rats,did not respond
